Results on one substance are retold here after patent US10472664B2, “Screening assay for identification of poly(ADP-ribose) polymerase 1 inhibitors” (Institute for Cancer Research, priority 2014, dated 2019).

This experiment deals with PARP-1. Description: PARP-1 regulation by purified histones in vitro, pADPr detected on Western blot. It counts as biochemical. The settings on record: PARP-1 pre-incubated with purified histone, then mixed with NAD; FIG. 2A, 2B. The procedure:
FIGS. 2A-D show PARP-1 protein regulation by histones (poly(ADP-ribose) polymer is denoted “pADPr”). […] Full-length PARP-1 protein (left) and PARP-1 protein cleaved by Caspase 3 (right) were pre-incubated with randomly broken DNA or core histone H4, followed by mixing with NAD. The products of PARP-1 enzymatic activity, poly(ADP-ribose), were detected after PAGE on a Western blot using the anti-pADPr antibody. […] PARP-1 was pre-incubated with different coregulators, followed by mixing with NAD. The amount of the product of PARP-1 enzymatic activity, poly(ADP-ribose), was detected after PAGE on a Western blot using the anti-Change(s) pADPr antibody and quantified independently using the Image Quant.
The two pathways described in Example 1 can be separated in vitro by cleaving Zn-fingers from the PARP-1 protein using caspase 3. This isoform of PARP-1 can be still activated by H4, but not by DNA (FIG. 2, panel A). […] Although histones H2Av and H2AvSE inhibit PARP-1 by themselves, when contained inside of a nucleosome they facilitate PARP-1 interaction with H4 and thereby activate PARP-1 (FIG. 2 panel D). […] Without intending to be limited to any particular theory or mechanism of action, it is believed that interactions with histones play an important for PARP-1 activation in vivo in genotoxic stress response and in transcriptional pathways.
(In general: In western blotting, separated proteins are transferred to a membrane and probed.)

Regarding H2Av: purified histone variant H2Av, the “PARP-1 activation (poly(ADP-ribose) production)” value was “does not activate PARP-1”.
